Laboratory results from patent EP1919471B1, “(INDOL-3-YL)-HETEROCYCLE DERIVATIVES AS AGONISTS OF THE CANNABINOID CB1 RECEPTOR” (Merck Sharp & Dohme B.V., priority 2005, dated 2007).

Legend:
human CB1 receptor = target: T1, human CB1 receptor (Homo sapiens, UniProt P21554); assay: In-vitro determination of efficacy and potency at the human CB1 receptor expressed in CHO cells (luciferase reporter assay); format: cell-based; conditions: CHO cells expressing the human CB1 receptor and a luciferase reporter gene; 5 h at 37 °C
T1 construct: expressed in transfected cells; host or cells: CHO (Chinese Hamster Ovary) cells
Procedure: Methods to determine receptor binding as well as in vitro biological activity of cannabinoid receptor modulators are well known in the art. In general, expressed receptor is contacted with the compound to be tested and binding or stimulation or inhibition of a functional response is measured. To measure a functional response isolated DNA encoding the CB1 receptor gene, preferably the human receptor, is expressed in suitable host cells. Such a cell might be the Chinese Hamster Ovary cell, but other cells are also suitable. Preferably the cells are of mammalian origin. Methods to construct recombinant CB1 expressing cell lines are well known in the art (Sambrook et al, Molecular Cloning: a Laboratory Manual, Cold Spring Harbor Laboratory Press, Cold Spring Harbor, latest edition). Expression of the receptor is attained by expression of the DNA encoding the desired protein. Techniques for ligation of additional sequences and construction of suitable expression systems are all, by now, well known in the art. Portions or all of the DNA encoding the desired protein can be constructed synthetically using standard solid phase techniques, preferably to include restriction sites for ease of ligation. Suitable control elements for transcription and translation of the included coding sequence can be provided to the DNA coding sequences. As is well known, expression systems are now available which are compatible with a wide variety of hosts, including prokaryotic hosts such as bacteria and eukaryotic hosts such as yeast, plant cells, insect cells, mammalian cells, avian cells and the like. Cells expressing the receptor are then contacted with the test compound to observe binding, or stimulation or inhibition of a functional response. Alternatively isolated cell membranes containing the expressed CB1 (or CB2) receptor may be used to measure binding of compound. For measurement of binding radioactively or fluorescently labelled compounds may be used. The most widely used radiolabelled cannabinoid probe is [^3H]CP55940, which has approximately equal affinity for CB1 and CB2 binding sites. Functional CB1 agonist activity may be measured by determining the second messenger response, such as for example measurement of receptor mediated changes in cAMP or MAPkinase pathways. Thus, such a method involves expression of the CB1 receptor on the cell surface of a host cell and exposing the cell to the test compound. The second messenger response is then measured. The level of second messenger will be reduced or increased, depending on the effect of the test compound upon binding to the receptor.
In-vitro determination of efficacy and potency at the human CB1 receptor expressed in CHO cells
Chinese Hamster Ovary (CHO) cells expressing the human CB1 receptor and a luciferase reporter gene were suspended in phenol red/serum free DMEM/F-12 nut mix containing penicillin/streptomycin (50U/50 µg/ml) and fungizone (1 µg/ml) and seeded into 96 well plates at a density of 3 x 10^4 cells per well (100 µl final volume). Cells were incubated overnight (approx. 18 h at 37°C, 5% CO2/95% air) prior to assay. The test compound (10 mM solution in dimethylsulfoxide) was diluted in F12 Nut Mix to give a range of stock solutions from 0.11 mM to 0.11 nM. The stock solutions (10 µl) were added directly to the relevant wells. The plates were incubated at 37 °C for 5 h to allow agonist-induced expression of the luciferase enzyme. Under subdued light, LucLite substrate (Packard; reconstituted as per manufacturer's instructions; 100 µl) was added to each well. Plates were covered with Top Seal and then incubated at room temperature for 5 minutes before counting on the Packard TopCount (single photon counting, 0.01 minute count time, 5 minute count delay). A "best-fit" curve was fitted by a minimum sum of squares method to the plot of counts per second (CPS) against compound concentration (M) to obtain an EC50 value. […]

Mice = assay: Formalin Paw Test in Mice; format: in vivo; conditions: Mus musculus, iv, administered intravenously 5 minutes before 5% formalin, Phase 2 = between 20 and 30 min after formalin injection, read-out: ED50, inhibition of the nociceptive behaviour of Phase 2
Procedure: Formalin Paw Test in Mice
Four - six groups of six mice were treated with vehicle and one of four to five doses of the test compound (typically between 0.03, 0.1, 3 and 10 µmol/kg), administered intravenously into the tail vein (vehicle: 10% Tween-80 in saline; injection volume 10 ml/kg). This injection was followed 5 minutes later by 20 µl of 5% formalin, which was administered sub-cutaneously to the dorsum of the left hind paw. Immediately after formalin administration the animal was placed in a test chamber and data acquisition, using a detection device (Automated Nociception Analyser (ANA); Department of Anesthesiology, University of California, San Diego), was started, independently for each chamber. The nociceptive behaviour was measured as the number of counts (licking, lifting, biting and flinching actions) detected within the two phases of nociception (Yaksh et al, 2001). The nociceptive behaviour between 0 and 5 min after formalin injection (Phase 1) and between 20 and 30 min after formalin injection (Phase 2) was recorded and number of counts for each mouse, compared to the mean number of counts for the vehicle treated animals, was calculated. Once values for each mouse were obtained, the mean and s.e.m. were calculated for each treatment group. The percent inhibition data were then used to calculate ED50 values for Phase 1 and Phase 2.

T1 sequence (P21554 whole entry): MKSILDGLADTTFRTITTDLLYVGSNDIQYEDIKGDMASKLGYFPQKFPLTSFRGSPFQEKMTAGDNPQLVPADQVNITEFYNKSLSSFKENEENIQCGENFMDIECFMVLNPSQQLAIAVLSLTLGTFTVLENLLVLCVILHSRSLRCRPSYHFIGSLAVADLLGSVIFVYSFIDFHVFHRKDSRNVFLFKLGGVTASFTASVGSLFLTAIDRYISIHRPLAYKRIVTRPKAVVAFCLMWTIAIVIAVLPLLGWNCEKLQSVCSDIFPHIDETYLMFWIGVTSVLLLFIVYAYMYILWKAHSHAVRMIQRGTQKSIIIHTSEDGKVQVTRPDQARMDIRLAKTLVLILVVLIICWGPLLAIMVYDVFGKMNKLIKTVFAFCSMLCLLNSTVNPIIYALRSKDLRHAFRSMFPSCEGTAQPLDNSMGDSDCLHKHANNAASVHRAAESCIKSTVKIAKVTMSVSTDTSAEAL

7-Ethyl-3-[(5-{N-[4-(carboxamido)methyl]piperidin-1-yl}methyl)-([1,2,4]-thiadiazol-3-yl)]-1-(tetrahydropyran-4-yl)methyl-1H-indole [Example 12]
pEC50 (human CB1 receptor): 6.9

COCCN(Cc1nc(-c2cn(CC3CCOCC3)c3c(Cl)cccc23)ns1)S(C)(=O)=O [Example 7, 7-Chloro-3-({5-[(N-{2-methoxy}ethyl)-(N-{methylsulfonyl})amino]methyl}-([1,2,4]-thiadiazol-3-yl))-1-(tetrahydropyran-4-yl)methyl-1H-indole]
EC50 (human CB1 receptor): 79.4 nM

CCc1cccc2c(-c3nsc(CN(C)CC(N)=O)n3)cn(CC3CCOCC3)c12 [Example 9, 7-Ethyl-3-[(5-{[N-(carboxamido)methyl]-N-methylamino}methyl)-([1,2,4]-thiadiazol-3-yl)]-1-(tetrahydropyran-4-yl)methyl-1H-indole]
EC50 (human CB1 receptor): 126 nM

CCc1cccc2c(-c3nsc(CN4CCC(C(=O)NCCO)CC4)n3)cn(CC3CCOCC3)c12 [Example 10A, 7-Ethyl-3-[(5-{4-[(N-{2-hydroxy}ethyl)carboxamido]piperidin-1-yl}methyl)-([1,2,4]-thiadiazol-3-yl)]-1-(tetrahydropyran-4-yl)methyl-1H-indole]
EC50 (human CB1 receptor): 12.6 nM | ED50 (Mice): < 5 µmol/kg

O=C(NCCO)[C@H]1CCCN(Cc2nc(-c3cn(CC4CCS(=O)(=O)CC4)c4c(Cl)cccc34)ns2)C1 [Example 13, (S)-7-Chloro-3-[(5-{[3-N-(2-hydroxyethyl)carboxamido]piperidin-1-yl}methyl)-([1,2,4]-thiadiazol-3-yl)]-1-(1,1-dioxo-hexahydrothiopyran-4-yl)methyl-1H-indole]
pEC50 (human CB1 receptor): 6.9

CS(=O)(=O)N(CCO)Cc1nc(-c2cn(CC3CCOCC3)c3c(Cl)cccc23)ns1 [Example 15, 7-Chloro-3-({5-[(N-{2-hydroxy}ethyl)-(N-{methylsulfonyl})amino]methyl}-([1,2,4]-thiadiazol-3-yl))-1-(tetrahydropyran-4-yl)methyl-1H-indole]
EC50 (human CB1 receptor): 20 nM | ED50 (Mice): < 5 µmol/kg

OCC1CCN(Cc2nnc(-c3cn(CC4CCCCC4)c4c(Cl)cccc34)o2)CC1 [Example 17, 7-Chloro-3-[(5-{4-[hydroxymethyl]piperidin-1-yl}methyl)-([1,3,4]-oxadiazol-2-yl)]-1-(cyclohexyl)methyl-1H-indole]
EC50 (human CB1 receptor): 126 nM

CS(=O)(=O)N1CCC[C@H]1c1nnc(-c2cn(CC3CCOCC3)c3c(Cl)cccc23)o1 [Example 18, (S)-7-Chloro-3-[(5-{N-methylsulfonyl}pyrrolidin-2-yl)-([1,3,4]-oxadiazol-2-yl)]-1-(tetrahydropyran-4-yl)methyl-1H-indole]
pEC50 (human CB1 receptor): 7.2

O=C(NCCO)C1CCN(Cc2nc(-c3cn(CC4CCOCC4)c4c(Cl)cccc34)no2)CC1 [Example 19, 7-Chloro-3-[(5-{4-[(N-{2-hydroxy}ethyl)carboxamido]piperidin-1-yl}methyl)-([1,2,4]oxadiazol-3-yl)]-1-(tetrahydropyran-4-yl)methyl-1H-indole]
EC50 (human CB1 receptor): 79.4 nM | ED50 (Mice): < 5 µmol/kg

CN(CC(N)=O)Cc1nc(-c2cn(CC3CCOCC3)c3c(Cl)cccc23)no1 [Example 20, 7-Chloro-3-[(5-{[N-(carboxamido)methyl]-N-methylamino}methyl)-([1,2,4]oxadiazol-3-yl)]-1-(tetrahydropyran-4-yl)methyl-1H-indole]
EC50 (human CB1 receptor): 39.8 nM | ED50 (Mice): < 5 µmol/kg

CN(CC(=O)NCC(N)=O)Cc1nc(-c2cn(CC3CCOCC3)c3c(Cl)cccc23)no1 [Example 20A]
EC50 (human CB1 receptor): 31.6 nM

CN(CC(=O)NCCO)Cc1nc(-c2cn(CC3CCOCC3)c3c(Cl)cccc23)no1 [Example 20B, 7-Chloro-3-({5-[(N-{[N-(2-hydroxyethyl)]carboxamido}methyl)-N-methylamino]methyl}-[1,2,4]oxadiazol-3-yl)-1-(tetrahydropyran-4-yl)methyl-1H-indole]
EC50 (human CB1 receptor): 50.1 nM

COCC(=O)NCc1nc(-c2cn(CC3CCOCC3)c3c(Cl)cccc23)no1 [Example 24, 7-Chloro-3-[(5-{[N-methoxymethylformyl]amino}methyl)-([1,2,4]-oxadiazol-3-yl)]-1-(tetrahydropyran-4-yl)methyl-1H-indole]
EC50 (human CB1 receptor): 200 nM

CN(C)S(=O)(=O)N(CCO)Cc1nc(-c2cn(CC3CCOCC3)c3c(Cl)cccc23)no1 [Example 25, 7-Chloro-3-[(5-{N-(N',N'-dimethylsulfonamido)}-(N-{2-hydroxy}ethylamino)methyl)-([1,2,4]-oxadiazol-3-yl)]-1-(tetrahydropyran-4-yl)methyl-1H-indole]
EC50 (human CB1 receptor): 100 nM
